The test deals with tau (htau40), synthetic filaments (Homo sapiens, UniProt P10636). Briefly: Thioflavin S fluorescence displacement from synthetic htau40 filaments. Format: binding.

From publication PMC3740339 (Neurotoxicity research, 2009) come the findings set out here.

Each structure is given as a SMILES string.

One may read the AC50 as the concentration giving half of the maximal activity seen. Read a low AC50 as greater potency.

tau (htau40), synthetic filaments, sequence (P10636 1-441 isoform P10636-8): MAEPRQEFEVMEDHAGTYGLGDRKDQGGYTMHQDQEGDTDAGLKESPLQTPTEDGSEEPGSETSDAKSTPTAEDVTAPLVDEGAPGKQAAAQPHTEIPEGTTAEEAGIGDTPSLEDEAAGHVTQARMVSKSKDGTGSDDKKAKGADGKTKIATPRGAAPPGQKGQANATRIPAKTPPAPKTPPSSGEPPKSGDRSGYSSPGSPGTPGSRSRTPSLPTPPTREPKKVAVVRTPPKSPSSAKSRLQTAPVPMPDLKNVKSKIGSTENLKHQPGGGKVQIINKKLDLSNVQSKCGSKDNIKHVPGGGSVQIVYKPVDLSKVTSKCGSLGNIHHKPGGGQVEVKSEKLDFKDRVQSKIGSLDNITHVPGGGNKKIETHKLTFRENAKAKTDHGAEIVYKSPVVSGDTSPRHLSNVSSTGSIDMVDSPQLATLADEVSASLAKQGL

For the molecule `COc1ccc2nc(/N=N/c3ccc(N(C)C)cc3)sc2c1` [N3, (E)-2-[[4-(dimethylamino)phenyl]azo]-6-methoxybenzothiazole], the AC50 amounted to 36 ± 6 nM.
